“Also recorded” adds a separate entry of the source.
What was measured:
Format in all cases: cell-based
hERG1 E544L = molecular target: T1, hERG1 E544L (Homo sapiens, UniProt Q12809, E544L); assay: Whole cell patch-clamp of hERG1 E544L mutant; conditions: 10 µM
T1 construct: expressed in transfected cells; host or cells: HEK 293
Procedure: (§1) Transfected HEK cells on glass cover slips were placed in a chamber mounted on a modified stage of an inverted microscope. The chamber was superfused at a rate of 2 mL/min with a normal external solution. The extracellular solution contained (in mM) NaCl 140, KCl 5.4, CaCl2 1, MgCl2 1, HEPES 5, glucose 5.5, pH 7.4, with NaOH. Micropipettes were pulled from borosilicate glass capillary tubes on a programmable horizontal puller (Sutter Instruments, Novato, CA). Standard patch-clamp methods were used to measure the whole cell currents of hERG1 mutants expressed in HEK 293 cells using the AXOPATCH 200B amplifier (Axon Instruments). Unless otherwise indicated, tail currents were recorded when the voltage was returned to −50 mV from +50 mV. Further details on electrophysiological methods are collected in Methods S1.
(§2) Electrophysiology Protocol:
(§3) The pipette solution contained the following (at mM concentration): KCl 10, K-aspartate 110, MgCl2 5, Na2ATP 5, EGTA 10, HEPES 5, and CaCl2 1. The solution was adjusted to pH 7.2 with KOH. The extracellular solution contained the following (at mM concentration): NaCl 140, KCl 5.4, CaCl2 1, MgCl2 1, HEPES 5, and glucose 5.5. The solution was adjusted to pH 7.4 with NaOH. For IKr measurements, the whole cell configuration of the patch clamp method was used. The series resistance was less than 7
(§4) MΩ. The data were sampled at 1 kHz. The holding potential was -80 mV. The activation of hERG tail currents was induced by depolarization to a range of potentials from +50 to -100 mV in 10 mV steps for 1 second. This was followed by repolarization to -100 mV for 1 second to record the tail currents.
(§5) -100 mV, a -120 mV 1 second pre-pulse was applied to completely close the hERG channels before subsequent depolarization. All of the tail currents reported in this manuscript represent dofetilide-sensitive currents. The inactivation of hERG was measured by a previously reported triple-pulse protocol5, 6. The holding potential was -80 mV. The hERG channel was first depolarized to +50 mV for 1 second. Recovery from inactivation was achieved using a short pulse (a 10 ms hyperpolarization) to -120 mV, followed by the application of test pulses from -100 to 0 mV for 1 second in 10 mV steps.
(§6) A voltage of -100 mV was selected because it was on the flat part of the inactivation-voltage relationship. The methods employed are identical to ones previously reported. […]

hERG1 = molecular target: T2, hERG1 (Homo sapiens, UniProt Q12809); assay: Whole cell patch-clamp of hERG1 currents in transfected HEK 293 cells; set-up: Inactivation ΔV0.3: unit not given here; conditions: for Deactivation Δλ/λcon: deactivation time constant relative to baseline; for Activation V1/2 (mV): shift in voltage-dependence of activation; for Inactivation ΔV0.3: shift in voltage-dependence of inactivation; for Amplitude I/Icon: tail current relative to baseline
T2 construct: expressed in transfected cells; host or cells: HEK 293
Procedure: as §1, §2, §3, §4, §5, §6

[1] = molecular target: T3, cardiac sodium current (INa) (Mus musculus, UniProt Q9JJV9); assay: Patch clamp of INa in neonatal cardiomyocytes
T3 construct: endogenous in cells; host or cells: neonatal (day 1) mouse ventricular cardiomyocytes
T3 sequence (Q9JJV9 whole entry): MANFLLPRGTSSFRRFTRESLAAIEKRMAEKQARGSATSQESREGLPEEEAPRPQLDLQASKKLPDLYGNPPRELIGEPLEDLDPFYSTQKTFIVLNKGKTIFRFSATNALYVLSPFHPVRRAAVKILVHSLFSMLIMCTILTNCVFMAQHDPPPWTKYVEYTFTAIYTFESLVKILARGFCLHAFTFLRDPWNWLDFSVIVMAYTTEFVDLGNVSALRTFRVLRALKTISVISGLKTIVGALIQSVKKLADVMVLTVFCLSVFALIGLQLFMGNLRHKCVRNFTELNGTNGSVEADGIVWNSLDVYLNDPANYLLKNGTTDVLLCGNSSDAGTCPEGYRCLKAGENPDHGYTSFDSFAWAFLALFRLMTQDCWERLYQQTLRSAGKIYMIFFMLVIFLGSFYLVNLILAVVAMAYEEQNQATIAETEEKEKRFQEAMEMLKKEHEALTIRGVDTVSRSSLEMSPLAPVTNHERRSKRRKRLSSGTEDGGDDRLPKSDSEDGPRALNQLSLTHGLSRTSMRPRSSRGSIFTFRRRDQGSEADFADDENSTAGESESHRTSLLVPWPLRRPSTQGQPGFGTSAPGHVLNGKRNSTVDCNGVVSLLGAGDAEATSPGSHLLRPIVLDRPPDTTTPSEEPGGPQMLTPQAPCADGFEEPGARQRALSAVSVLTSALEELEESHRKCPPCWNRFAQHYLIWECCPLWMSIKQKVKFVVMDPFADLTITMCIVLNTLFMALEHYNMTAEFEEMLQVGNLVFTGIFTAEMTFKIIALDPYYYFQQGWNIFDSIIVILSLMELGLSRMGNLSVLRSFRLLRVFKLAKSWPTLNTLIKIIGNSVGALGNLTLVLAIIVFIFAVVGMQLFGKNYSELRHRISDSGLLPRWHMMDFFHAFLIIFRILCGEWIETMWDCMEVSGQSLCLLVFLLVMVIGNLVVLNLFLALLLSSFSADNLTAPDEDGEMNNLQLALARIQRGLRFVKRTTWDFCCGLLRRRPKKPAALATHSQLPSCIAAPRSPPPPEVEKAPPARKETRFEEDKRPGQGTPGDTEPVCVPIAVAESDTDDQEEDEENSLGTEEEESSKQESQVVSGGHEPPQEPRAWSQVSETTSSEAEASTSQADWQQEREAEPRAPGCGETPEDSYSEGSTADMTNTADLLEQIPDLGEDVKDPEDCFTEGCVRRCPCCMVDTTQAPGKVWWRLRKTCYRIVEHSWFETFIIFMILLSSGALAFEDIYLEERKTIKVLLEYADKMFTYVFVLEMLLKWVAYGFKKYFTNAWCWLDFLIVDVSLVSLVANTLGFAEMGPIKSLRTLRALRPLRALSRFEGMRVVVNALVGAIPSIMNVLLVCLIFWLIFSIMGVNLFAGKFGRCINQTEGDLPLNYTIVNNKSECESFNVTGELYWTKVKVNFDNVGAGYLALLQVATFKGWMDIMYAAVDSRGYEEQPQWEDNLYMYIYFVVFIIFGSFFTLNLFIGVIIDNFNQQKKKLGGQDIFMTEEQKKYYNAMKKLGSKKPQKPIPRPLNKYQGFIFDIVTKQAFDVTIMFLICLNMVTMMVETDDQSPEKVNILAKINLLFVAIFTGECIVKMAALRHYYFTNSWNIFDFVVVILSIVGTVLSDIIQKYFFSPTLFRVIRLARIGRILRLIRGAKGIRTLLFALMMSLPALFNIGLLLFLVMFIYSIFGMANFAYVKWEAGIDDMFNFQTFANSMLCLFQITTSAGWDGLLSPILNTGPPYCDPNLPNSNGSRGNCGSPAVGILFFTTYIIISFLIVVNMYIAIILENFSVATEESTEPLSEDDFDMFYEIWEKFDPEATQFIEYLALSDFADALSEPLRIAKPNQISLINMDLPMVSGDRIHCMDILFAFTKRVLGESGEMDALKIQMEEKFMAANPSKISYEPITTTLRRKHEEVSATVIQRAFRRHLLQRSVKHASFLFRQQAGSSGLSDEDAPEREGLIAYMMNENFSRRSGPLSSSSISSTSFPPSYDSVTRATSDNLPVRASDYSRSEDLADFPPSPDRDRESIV
Procedure: (§7) Action potentials were recorded from neonatal (day 1) mouse ventricular myocytes as previously reported. Although IKr has little physiologic importance to the action potential of the adult rodent heart, we previously reported that IKr is the dominant repolarizing current in day 1 neonatal myocytes, with little or no IKs. Thus, these neonatal cells are well suited to assess the physiologic relevance of blockade of IKr to the action potential characteristics. In contrast, to address the possibility that compounds inadvertently interact with other channels, action potentials were recorded from adult cardiac myocytes. Myocytes on glass coverslips were placed in a chamber mounted on a modified stage of an inverted microscope.
Figure 10 Drug effect on action potential in cardiomyocytes. Panel A. The effect of 20 µM and 3 µM Panel B. MC-II-157c on action potentials neonatal cardiomyocytes. […] In patch clamp studies, the INa was induced by depolarizations to −30 mV from holding potentials of −100 mV. The light traces are baseline and bold traces were recorded with MC-II-157c.

[2] = test system: fetal mouse ventricular myocytes; assay: Action potential recordings in neonatal (day 1) / fetal mouse ventricular myocytes; conditions: listed as MC-II-157c
Procedure: as §7

[3] = Conc. 3 µM, listed as MC-II-157c
[4] = Conc. 10 µM, listed as MC-II-157c

Compound: C[C@H](NCc1ccc(C(F)(F)F)cc1)C(=O)NC(=O)Nc1cc(C(F)(F)F)ccc1O [Compound 5]
- response in amplitude of the tail current in E544L versus WT (hERG1 E544L): markedly diminished
- pharmacologic responses (shift in voltage-dependence of activation, slowing of deactivation) in E544L versus WT (hERG1 E544L; listed as MC-II-157c): significantly and substantially less pharmacologic responses; also recorded: significantly and substantially reduced
- lower drug concentration at which effects on deactivation were still manifest (hERG1): ~2 µM
- Deactivation Δλ/λcon (hERG1; Conc. 1 µM): 0.2±0.1
- Activation V1/2 (mV) (hERG1; Conc. 1 µM): −2±0.0 mV
- Inactivation ΔV0.3 (hERG1; Conc. 1 µM): 1.3±0.9
- Amplitude I/Icon (hERG1; Conc. 1 µM): 0.95±0.02
- Deactivation Δλ/λcon (hERG1; Conc. 3 µM): 0.8±0.1
- Deactivation Δλ/λcon (hERG1; [3]): slows deactivation; also recorded: modest slowing of deactivation
- Activation V1/2 (mV) (hERG1; Conc. 3 µM): −6.5±0.5 mV
- Activation V1/2 (mV) (hERG1; [3]): does shift voltage dependence of activation; also recorded: shifting V1/2 of activation to hyperpolarized potentials
- Inactivation ΔV0.3 (hERG1; Conc. 3 µM): 1±1
- Amplitude I/Icon (hERG1; Conc. 3 µM): 1.1±0.04
- Amplitude I/Icon (hERG1; [3]): significantly increased the tail-current amplitude; also recorded: increases tail current amplitude; also recorded: modest increase in tail current amplitude
- Deactivation Δλ/λcon (hERG1; Conc. 10 µM): 3.3±1.3
- Activation V1/2 (mV) (hERG1; Conc. 10 µM): −14±3.6 mV
- Inactivation ΔV0.3 (hERG1; Conc. 10 µM): 14.0±2.7
- Inactivation ΔV0.3 (hERG1; [4]): shifts voltage-dependence of inactivation to depolarized potentials
- Amplitude I/Icon (hERG1; Conc. 10 µM): 0.88±0.1
- Amplitude I/Icon (hERG1; [4]): 0.88
- Deactivation Δλ/λcon (hERG1; Conc. 20 µM): 3.5±0.2
- Activation V1/2 (mV) (hERG1; Conc. 20 µM): −15.3±4.1 mV
- Inactivation ΔV0.3 (hERG1; Conc. 20 µM): +9.3±2.0
- Amplitude I/Icon (hERG1; Conc. 20 µM): 0.86±0.1
- Deactivation Δλ/λcon (hERG1; Conc. 50 µM): 4.5±0.1
- Activation V1/2 (mV) (hERG1; Conc. 50 µM): −27.5±3.5 mV
- Inactivation ΔV0.3 (hERG1; Conc. 50 µM): 26±1
- Amplitude I/Icon (hERG1; Conc. 50 µM): 0.83±0.1
- magnitude of the effects on activation and deactivation, greater than previously reported with NS1643 (hERG1; relative to NS1643): 6-10 fold
- concentrations at which INa is blocked [1]: > 20 µM
- blockade of the sodium current (INa) ([1]; 20 µM, listed as MC-II-157c): blocks a cardiac sodium channel; also recorded: substantially blocks INa
- action potential duration ([2]; 3 µM): significantly shortened action potential duration
- upstroke of the action potential, overshoot potential and excitability threshold ([2]; 20 µM): affected the upstroke of the action potential, the overshoot potential and the excitability threshold; also recorded: decreased the upstroke dV/dt of the action potential, the overshoot potential and excitability threshold

From PMC4156305, “Structure Driven Design of Novel Human Ether-A-Go-Go-Related-Gene Channel (hERG1) Activators” (PLoS ONE, 2014)
